Assay results from US6906205B2, “Spiro and dispiro 1,2,4-trioxolane antimalarials” (Medicines for Malaria Venture MMV, priority 2002, dated 2005).
In brackets after ≈: the same amount, converted by molar mass.

Tests used:
P. berghei ANKA strain [1] = test: prophylactic activity, single 100 mg/kg po dose before infection; type: in vivo, Plasmodium berghei; conditions: reduction of parasitemia day 3 post-infection
Procedure: (§1) Moro NMRI male mice (Fü Albino specific pathogen free) weighing 18±2 g were infected intravenously (i.v.) with 2×10^7 P. berghei ANKA strain-infected erythrocytes from donor mice on day 0 of the experiment. From donor mice with circa 30% parasitemia, heparinized blood was taken and diluted in physiological saline to 10^8 parasitized erythrocytes per ml. An aliquot (0.2 ml) of this suspension was injected i.v. into experimental and control groups of mice. In untreated control mice, parasitemia rose regularly to 40 to 50% by day 3 post-infection and 70 to 80% by day 4 post-infection. The mice died between days 5 and 7 post-infection. Throughout the experiments, mice were kept in groups of three or five animals in Makrolon type II cages in an air-conditioned animal room at 22 to 23° C. A diet with p-aminobenzoic acid (PABA) of 45 mg (NAFAG FUTTER© food N^o 9009 PAB-45) per kg of body weight, and tap water is available ad libitum.
(§2) OZ compounds were prepared at an appropriate concentration, either as a solution or a suspension containing SSV (0.5% w/v CMC, 0.5% v/v benzyl alcohol, 0.4% v/v Tween 80, and 0.9% w/v sodium chloride in water). They were administered per os (p.o.) in a total volume of 0.01 ml per gram of mouse. The activity of the compound was determined by a variety of methods outlined in subsequent sections. Survival time was also recorded, and survival to day 30 post-infection was considered to be a cure.
Prophylactic activities of the compounds were compared after administering po single dose of 100 mg/kg to different groups of five animals at various times before infection. All groups including an untreated control group, were then infected at the same time. Parasitemia was determined for each animal on day 3 post-infection, and percent of reduction of the level of parasitemia compared to levels for animals given no drug is determined.

P. berghei ANKA strain [2] = test: treatment: 3x10 mg/kg p.o. divided dose vs 1x30 mg/kg po single dose in infected mice; type: in vivo, Plasmodium berghei; conditions: for Activity (%) p.o. SSV: percent reduction of parasitemia day 4; for Cures: 1 × 30 mg/kg, survival to day 30 post-infection = cure, cured/treated mice
Procedure: Moro NMRI male mice (Fü Albino specific pathogen free) weighing 18±2 g were infected intravenously (i.v.) with 2×10^7 P. berghei ANKA strain-infected erythrocytes from donor mice on day 0 of the experiment. From donor mice with circa 30% parasitemia, heparinized blood was taken and diluted in physiological saline to 10^8 parasitized erythrocytes per ml. An aliquot (0.2 ml) of this suspension was injected i.v. into experimental and control groups of mice. […] Throughout the experiments, mice were kept in groups of three or five animals in Makrolon type II cages in an air-conditioned animal room at 22 to 23° C.
They were administered per os (p.o.) in a total volume of 0.01 ml per gram of mouse. The activity of the compound was determined by a variety of methods outlined in subsequent sections. Survival time was also recorded, and survival to day 30 post-infection was considered to be a cure.
The first experiment conducted consisted of administration of a divided 3×10 mg/kg p.o. dose administered on days 1, 2, and 3 post-infection vs. a single 1×30 mg/kg po dose administered on day 1 post-infection. On day 4 post-infection, blood smears of all animals were prepared and stained with Giemsa. […] Compounds were administered orally in the SSV vehicle.

P. berghei ANKA strain [3] = test: treatment: 3x3 mg/kg and 3x1 mg/kg po divided doses in infected mice; type: in vivo, Plasmodium berghei; conditions: for Activity (%) p.o. SSV: percent reduction of parasitemia day 4
Procedure: as §1, §2
The second experiment consists of administration of divided 3×3 mg/kg and 3×1 mg/kg po doses administered on days 1, 2, and 3 post-infection. On day 4 post-infection, blood smears of all animals were prepared and stained with Giemsa. Parasitemia was determined microscopically, and the difference between the mean value of the control group (taken as 100%) and those of the experimental groups was calculated and expressed as percent reduction. Compounds were administered orally in the SSV vehicle.

dosing in dogs = type: in vivo; conditions: dog
Excerpt: (§3) Artesunate is listed as a reference compound.

[4] = system: P. falciparum K1 strain (Thailand resistant to chloroquine); test: semiautomated microdilution assay, [3H]-hypoxanthine incorporation, K1 strain; type: cell-based, Plasmodium falciparum; conditions: K1 strain, 72 h incubation
In short: (§4)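 Logit regression analysis was used to estimate IC50 values. Parasites were intraerythrocytic forms from asynchronous stock cultures, and compounds were tested by semiautomated microdilution.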

[5] = system: Schistosoma mansoni 21-day-old schistosomules; test: effect on 21-day-old schistosomules in mice; type: in vivo; conditions: single 200 mg/kg per os, female mice
Procedure: All groups were killed 4 weeks after treatment and the liver and intestine were removed and separated. The liver and intestine were compressed and alive male and female worms could be seen and counted. The effect of the compounds was evaluated by mean total and female worm burden.

[6] = system: Schistosoma mansoni adult schistosomes (49-day-old); test: effect on adult schistosomes (49-day-old) in mice; type: in vivo; conditions: single 400 mg/kg per os
Procedure: Mice were infected with 100 Schistosoma mansoni cercariae […]. Each group was treated per os with OZ compounds at single doses of 200, 400, and 600 mg/kg. […] All groups were killed 4 weeks after treatment and the liver and intestine were removed and separated. The liver and intestine were compressed and alive male and female worms could be seen and counted.

dosing in rats = type: in vivo; conditions: rat
Excerpt: as §3

[7] = system: ANKA strain of P. berghei; test: single dose STI in vivo screen in infected mice; parameters: species or system Plasmodium berghei
In short: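 Groups of 3-5 Moro SPF or NMRI mice infected with the ANKA strain of P. berghei received a single dose of trioxolane on day one post-infection. The compound was given in 3% ethanol and 7% Tween 80 or in SSV (0.5% w/v CMC, 0.5% v/v benzyl alcohol, 0.4% v/v Tween 80, 0.9% w/v sodium chloride in water). Antimalarial activity was scored as percent reduction in parasitemia on day three and as survival time versus untreated controls. Survival to day 30 counted as cure.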

[8] = system: P. falciparum NF54 strain (sensitive to standard antimalarials); test: semiautomated microdilution assay, [3H]-hypoxanthine incorporation, NF54 strain; type: cell-based, Plasmodium falciparum; conditions: NF54 strain, 72 h incubation
In short: as §4

[9] = single 100 mg/kg po 24 h before infection
[10] = single 100 mg/kg po 48 h before infection
[11] = single 100 mg/kg po 72 h before infection
[12] = 1 × 30 mg/kg single dose day 1 post-infection
[13] = 3 × 10 mg/kg days 1, 2, 3 post-infection
[14] = 3 × 1 mg/kg days 1, 2, 3 post-infection
[15] = 3 × 3 mg/kg days 1, 2, 3 post-infection

Row | SMILES | Prophylactic Activity (%) (P. berghei ANKA strain [1]; [9]) | Prophylactic Activity (%) (P. berghei ANKA strain [1]; [10]) | Prophylactic Activity (%) (P. berghei ANKA strain [1]; [11]) | Prophylactic Activity (%) (P. berghei ANKA strain [1]; single 100 mg/kg po at 0 h) | Survival (days) p.o. SSV (P. berghei ANKA strain [2]; [12]) [days] | Activity (%) p.o. SSV (P. berghei ANKA strain [2]; [12]) [%] | Cures (P. berghei ANKA strain [2]) | Survival (days) p.o. SSV (P. berghei ANKA strain [2]; [13]) [days] | Activity (%) p.o. SSV (P. berghei ANKA strain [2]; [13]) [%] | Survival (days) p.o. SSV (P. berghei ANKA strain [3]; [14]) [days] | Activity (%) p.o. SSV (P. berghei ANKA strain [3]; [14]) [%] | Survival (days) p.o. SSV (P. berghei ANKA strain [3]; [15]) [days] | Activity (%) p.o. SSV (P. berghei ANKA strain [3]; [15]) [%] | further results
1 | CC(C)(N)CNC(=O)CC1CCC2(CC1)OOC1(O2)C2CC3CC(C2)CC1C3.Cc1ccc(S(=O)(=O)O)cc1 (centres unmarked) [compound 277] | 25 | 7 | 9 | 100 | 10.4 | 99.92 | 0/5 | 27.6 | 100 | 9.4 | 83 | 14 | 100 | –
2 | CS(=O)(=O)O.NCC(=O)NCC1CCC2(CC1)OOC1(O2)C2CC3CC(C2)CC1C3 (centres unmarked) [compound 271] | 100 | 99.98 | 99.89 | 100 | 14 | 99.97 | 0/5 | 27.8 | 100 | 8.8 | 87 | 16.2 | 99.99 | –
3 | Cc1ccc(S(=O)(=O)O)cc1.O=C(CC1CCC2(CC1)OOC1(O2)C2CC3CC(C2)CC1C3)N1CCNCC1 (centres unmarked) [compound 279] | 97 | 27 | 14 | 100 | 14.8 | 99.95 | 0/5 | 25.4 | 100 | 8.8 | 83 | 14.8 | 100 | –
4 | NC(=O)CNC[C@H]1CC[C@]2(CC1)OOC1(O2)C2CC3CC(C2)CC1C3 (some centres unmarked) [OZ256] | – | – | – | – | – | – | – | – | – | – | – | – | – | IV t1/2 (10 mg/kg) (dosing in dogs; IV 10 mg/kg): 1.42 h; Oral t1/2 (10 mg/kg) (dosing in dogs; oral 10 mg/kg): 1.38 h; Oral Bioavailability 10 mg/kg (dosing in dogs; oral 10 mg/kg, OZ 279, OZ 256, OZ 209 values flagged (V)): 42.0%; Oral Bioavailability 25 mg/kg (dosing in dogs; oral 25 mg/kg, OZ 279, OZ 256, OZ 209 values flagged (V)): 38.3%; IC50 (ng/ml) K1 [4]: 0.3 ng/mL (≈ 0.856 nM); % reduction of schistosomule growth at day 21 after per os application of 200 mg/kg, FWR (%) [5]: 86%; % reduction of schistosomule growth at day 21 after per os application of 200 mg/kg, TWR (%) [5]: 85%; % reduction of adult worms growth at day 49 after per os application of 400 mg/kg, TWR (%) [6]: 10%; adult worms at day 49, per os 400 mg/kg, DEAD WORM (%) [6]: 19%; IV t1/2 (10 mg/kg) (dosing in rats; IV 10 mg/kg): 1.57 h; Oral Bioavailability 10 mg/kg (dosing in rats; oral 10 mg/kg): 18.6%; Oral Bioavailability 25 mg/kg (dosing in rats; oral 25 mg/kg): 51.9%; Oral t1/2 (25 mg/kg) (dosing in rats; oral 25 mg/kg): 1.22 h; Activity (%) po ([7]; percent reduction in parasitemia day 3 post-infection, single 10 mg/kg po in 3% ethanol and 7% Tween 80, mice): 99.70%; Activity (%) sc ([7]; percent reduction in parasitemia day 3 post-infection, single 10 mg/kg sc in 3% ethanol and 7% Tween 80, mice): 99.95%; Activity (%) SSVpo ([7]; percent reduction in parasitemia day 3 post-infection, single po dose in standard suspending vehicle (SSV), mice): 99.67%; Survival (days) po ([7]; single 10 mg/kg po in 3% ethanol and 7% Tween 80, untreated control 5.6 ± 0.3): 8.7 days; Survival (days) sc ([7]; single 10 mg/kg sc in 3% ethanol and 7% Tween 80, untreated control 5.6 ± 0.3): 9.7 days; Survival (days) SSVpo ([7]; single po dose in SSV, untreated control 5.6 ± 0.3): 8.7 days; IC50 (ng/ml) NF54 [8]: 0.2 ng/mL (≈ 0.571 nM)
